Tests used:
[1] = biological target: Estrogen receptor (Mus musculus) (UniProt O08537+P19785); experiment: Relative binding affinity for estrogen receptor; type: protein assay
[2] = biological target: T1, Progesterone receptor (Oryctolagus cuniculus) (UniProt P06186); experiment: Relative binding affinity for progesterone receptor
T1 sequence (whole entry): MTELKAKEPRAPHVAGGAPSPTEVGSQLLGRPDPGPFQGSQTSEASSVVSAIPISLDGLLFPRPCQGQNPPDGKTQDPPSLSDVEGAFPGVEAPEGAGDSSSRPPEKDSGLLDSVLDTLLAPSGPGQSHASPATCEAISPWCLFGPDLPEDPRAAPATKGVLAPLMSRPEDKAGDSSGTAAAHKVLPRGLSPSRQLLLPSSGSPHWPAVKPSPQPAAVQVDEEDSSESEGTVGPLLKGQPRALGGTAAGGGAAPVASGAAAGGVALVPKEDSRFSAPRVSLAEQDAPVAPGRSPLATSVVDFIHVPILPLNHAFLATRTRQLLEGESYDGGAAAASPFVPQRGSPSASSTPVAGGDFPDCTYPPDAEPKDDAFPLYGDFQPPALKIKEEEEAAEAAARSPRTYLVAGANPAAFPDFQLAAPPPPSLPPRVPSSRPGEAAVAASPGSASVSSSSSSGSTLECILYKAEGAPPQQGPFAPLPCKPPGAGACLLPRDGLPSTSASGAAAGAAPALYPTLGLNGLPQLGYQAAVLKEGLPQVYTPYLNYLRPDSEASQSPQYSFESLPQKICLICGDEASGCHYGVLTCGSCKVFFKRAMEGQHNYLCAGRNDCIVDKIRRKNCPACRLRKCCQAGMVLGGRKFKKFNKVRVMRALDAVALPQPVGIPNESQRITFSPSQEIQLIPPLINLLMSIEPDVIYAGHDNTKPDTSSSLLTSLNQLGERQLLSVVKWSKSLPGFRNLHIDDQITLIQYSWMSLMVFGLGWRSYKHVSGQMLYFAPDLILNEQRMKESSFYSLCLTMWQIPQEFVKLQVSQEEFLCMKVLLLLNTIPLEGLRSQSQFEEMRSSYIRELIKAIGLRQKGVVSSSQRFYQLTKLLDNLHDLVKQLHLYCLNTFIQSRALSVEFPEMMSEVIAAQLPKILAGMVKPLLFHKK

Sequence of Estrogen receptor (Mus musculus) (O08537 whole entry, looked up): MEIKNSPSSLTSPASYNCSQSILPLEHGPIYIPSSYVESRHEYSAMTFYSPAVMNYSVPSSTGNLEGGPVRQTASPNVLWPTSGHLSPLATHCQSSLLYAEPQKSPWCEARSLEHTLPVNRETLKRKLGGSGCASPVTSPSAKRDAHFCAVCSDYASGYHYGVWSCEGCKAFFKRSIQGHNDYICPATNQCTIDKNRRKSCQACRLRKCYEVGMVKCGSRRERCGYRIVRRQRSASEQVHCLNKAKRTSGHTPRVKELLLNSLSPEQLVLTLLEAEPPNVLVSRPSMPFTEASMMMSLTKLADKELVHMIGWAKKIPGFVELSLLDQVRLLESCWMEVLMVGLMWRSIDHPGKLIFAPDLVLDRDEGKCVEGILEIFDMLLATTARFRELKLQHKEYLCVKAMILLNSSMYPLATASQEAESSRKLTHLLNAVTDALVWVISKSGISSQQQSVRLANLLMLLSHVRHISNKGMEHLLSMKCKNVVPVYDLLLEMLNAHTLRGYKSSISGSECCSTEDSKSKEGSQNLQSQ
Sequence of Estrogen receptor (Mus musculus) (P19785 whole entry, looked up): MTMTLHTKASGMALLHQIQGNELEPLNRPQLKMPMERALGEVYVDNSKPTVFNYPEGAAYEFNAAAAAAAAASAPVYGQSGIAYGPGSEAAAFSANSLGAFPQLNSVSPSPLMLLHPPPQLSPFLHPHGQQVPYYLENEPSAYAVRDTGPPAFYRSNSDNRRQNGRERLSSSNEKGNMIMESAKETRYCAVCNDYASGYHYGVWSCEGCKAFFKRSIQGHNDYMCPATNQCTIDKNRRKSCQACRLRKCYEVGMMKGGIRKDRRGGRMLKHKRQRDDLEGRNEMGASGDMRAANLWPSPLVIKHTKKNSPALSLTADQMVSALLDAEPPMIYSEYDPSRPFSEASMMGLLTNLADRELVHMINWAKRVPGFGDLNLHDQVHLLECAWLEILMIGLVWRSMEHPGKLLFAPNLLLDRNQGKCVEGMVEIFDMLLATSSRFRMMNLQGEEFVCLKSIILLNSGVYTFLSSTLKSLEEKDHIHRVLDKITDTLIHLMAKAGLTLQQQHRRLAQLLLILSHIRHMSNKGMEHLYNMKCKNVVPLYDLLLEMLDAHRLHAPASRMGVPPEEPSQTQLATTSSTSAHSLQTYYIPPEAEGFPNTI

Row | Compound | relative binding affinity (RBA) [1] | relative binding affinity (RBA) [2]
1 | C[C@]12CC[C@H]3[C@@H](CCC4=CC(=O)CC[C@@]43C)[C@@H]1CC[C@@H]2C(=O)C[Se]c1ccccc1 | < 0.1 | 59
2 | CC(=O)[C@H]1CC[C@H]2[C@@H]3CCC4=CC(=O)CC[C@]4(C)[C@H]3CC[C@]12C | < 0.1 | 100
3 | CC(=O)[C@@]1([Se]c2ccccc2)CC[C@H]2[C@@H]3CCC4=CC(=O)CC[C@]4(C)[C@H]3CC[C@@]21C | < 0.1 | 2.1

— ChEMBL document CHEMBL1122289
